Test results as given in patent publication US4036834A, “Derivatives of 7-(α-hydroxy-substituted pyridyl carboxamido-α p h Δ^3 -cephem-4-carboxylic acid” (Yamanouchi Pharmaceutical Co., Ltd., priority 1974, dated 1977).
In brackets after ≈: the same amount, converted by molar mass. Read-outs that look alike come from different tables or passages of the source.

How the values were obtained:
Proteus vulgaris OXK US = assay: MIC against Proteus vulgaris OXK US; type: cell-based
Source text: (§1) Now, for illustrating the excellent pharmacological effects of the compounds of this invention, the values of MIC (γ/ml) of the compounds against various bacteria are shown in the following table, the compounds of this invention are shown by example numbers.
1: Proteus vulgaris OXK US

proteus vulgaris OX 19US = assay: MIC against proteus vulgaris OX 19US; type: cell-based; conditions: OX19US
Source text: as §1
2. proteus vulgaris OX 19US

[1] = system: proteus mirabilis IFM OM-19; assay: MIC against proteus mirabilis IFM OM-19; type: cell-based; conditions: IFMOM19
Source text: as §1
3. proteus mirabilis IFM OM-19

[2] = system: pseudomonas aeruginosa ATCC 8689; assay: MIC against pseudomonas aeruginosa ATCC 8689; type: cell-based; conditions: ATCC8689
Source text: as §1
4: pseudomonas aeruginosa ATCC 8689

[3] = system: pseudomonas aeruginosa 99 (Gentamycin resistant); assay: MIC against pseudomonas aeruginosa 99 (Gentamycin resistant); type: cell-based; conditions: pseudomonas aeruginosa 99 (Gentamycin resistant); read-out: MIC
Source text: as §1
5: pseudomonas aeruginosa 99 (Gentamycin resistant)

[4] = system: Pseudomonas ovalis IAM 1002; assay: MIC against Pseudomonas ovalis IAM 1002; type: cell-based; conditions: Pseudomonas putida, IAM1002
Source text: as §1
6: Pseudomonas ovalis IAM 1002

[5] = system: escherichia coli Kauffman 0-1; assay: MIC against escherichia coli Kauffman 0-1; type: cell-based
Source text: as §1
7: escherichia coli Kauffman 0-1

[6] = system: Klebsiella pneumoniae ATCC 10031; assay: MIC against Klebsiella pneumoniae ATCC 10031; type: cell-based; conditions: ATCC10031
Source text: as §1
8: Klebsiella pneumoniae ATCC 10031

salmonella typhi H901W = assay: microbe, parasite or virus in culture; type: cell-based; conditions: Salmonella enterica
salmonella enteritidis = assay: MIC against salmonella enteritidis; type: cell-based; conditions: Salmonella enterica
Source text: as §1
10: salmonella enteritidis

[7] = system: Shigella flexnori 2a 1675; assay: MIC against Shigella flexnori 2a 1675; type: cell-based; conditions: 2A1675
Source text: as §1

Shigella sonnei II 37148 = assay: MIC against Shigella sonnei II 37148; type: cell-based; conditions: II37148
Source text: as §1

[8] = system: bacillus megatherium 10778; assay: MIC against bacillus megatherium 10778; type: cell-based
Source text: as §1

[9] = system: Bacillus subtilis ATCC 6633; assay: MIC against Bacillus subtilis ATCC 6633; type: cell-based; conditions: ATCC6633
Source text: as §1
14: Bacillus subtilis ATCC 6633

[10] = system: micrococcus flavus ATCC 10240; assay: MIC against micrococcus flavus ATCC 10240; type: cell-based; conditions: ATCC10240
Source text: as §1

[11] = system: staphylococcus aureus 209P; assay: MIC against staphylococcus aureus 209P; type: cell-based
Source text: as §1
16: staphylococcus aureus 209P

[12] = system: staphylococcus Shimanishi; assay: MIC against staphylococcus Shimanishi; type: cell-based
Source text: as §1
17. staphylococcus Shimanishi

Staphylococcus Onuma = assay: MIC against Staphylococcus Onuma; type: cell-based
Source text: as §1

[13] = water solubility, naked-eye observation of solutions; type: physicochemical
Source text: Then, the experimental results showing the excellent water solubility of the compounds of this invention are illustrated in the following table, the results being the observation results by the naked eyes of the solutions thereof in each concentration as shown in the table.

[14] = proteus vulgaris OX 19US, read-out: MIC
[15] = pseudomonas aeruginosa ATCC 8689, read-out: MIC
[16] = Pseudomonas ovalis IAM 1002, read-out: MIC
[17] = bacillus megatherium 10778, read-out: MIC
[18] = Bacillus subtilis ATCC 6633, read-out: MIC
[19] = micrococcus flavus ATCC 10240, read-out: MIC
[20] = staphylococcus Shimanishi, read-out: MIC
[21] = Proteus vulgaris OXK US, read-out: MIC
[22] = escherichia coli Kauffman 0-1, read-out: MIC
[23] = Klebsiella pneumoniae ATCC 10031, read-out: MIC
[24] = salmonella enteritidis, read-out: MIC

Row | Compound | MIC (Proteus vulgaris OXK US; Proteus vulgaris) [µg/mL] | MIC (proteus vulgaris OX 19US; [14]) [µg/mL] | MIC [1] [µg/mL] | MIC [2, 15] [µg/mL] | MIC [3] [µg/mL] | MIC [4, 16] [µg/mL] | MIC ([5]; Escherichia coli) [µg/mL] | MIC ([6]; Klebsiella pneumoniae) [µg/mL] | MIC (salmonella typhi H901W) [µg/mL] | MIC [7] [µg/mL] | MIC (Shigella sonnei II 37148) [µg/mL] | MIC [8, 17] [µg/mL] | MIC [9, 18] [µg/mL] | MIC [10, 19] [µg/mL] | MIC ([11]; read-out: MIC) [µg/mL] | MIC [12, 20] [µg/mL] | MIC (Staphylococcus Onuma; Staphylococcus) [µg/mL] | MIC (Proteus vulgaris OXK US; [21]) [µg/mL] | MIC [5, 22] [µg/mL] | MIC [6, 23] [µg/mL] | further results
1 | Cc1nnc(SCC2=C(C(=O)O)N3C(=O)[C@@H](NC(=O)Cn4cnnn4)[C@H]3SC2)s1 [Cephazolin, reference compound] | 3.13 (≈ 6.89 µM) | 25 (≈ 55 µM) | 6.25 (≈ 13.8 µM) | > 100 | > 100 | > 100 | 1.56 (≈ 3.43 µM) | 1.56 (≈ 3.43 µM) | 1.56 (≈ 3.43 µM) | 1.56 (≈ 3.43 µM) | 1.56 (≈ 3.43 µM) | 0.19 (≈ 0.418 µM) | 0.19 (≈ 0.418 µM) | 0.19 (≈ 0.418 µM) | 0.19 (≈ 0.418 µM) | 0.78 (≈ 1.72 µM) | 1.56 (≈ 3.43 µM) |  |  |  | MIC (salmonella enteritidis; ENTERITIDIS): 1.56 µg/mL (≈ 3.43 µM)
2 | Nc1cc(Cl)cc(SCC2=C(C(=O)O)N3C(=O)C(NC(=O)C(NC(=O)c4cccnc4)c4ccccc4)C3SC2)n1 (stereo not drawn) [Contrast, 7-(α-nicotinoylamido-α-phenylacetamido)-3-(2-amino-4-chloropyidin-6-ylthiomethyl)-Δ ^3-cephem-carboxylic acid, reference compound] |  |  |  |  |  |  |  |  |  |  |  |  |  |  |  |  |  |  |  |  | water solubility (appearance of solution by the naked eyes) ([13]; concentration 1%): clear; water solubility (appearance of solution by the naked eyes) ([13]; concentration 5%): slightly turbid; water solubility (appearance of solution by the naked eyes) ([13]; concentration 10%): turbid; water solubility (appearance of solution by the naked eyes) ([13]; concentration 20%): gelled
3 | Cn1nnnc1SCC1=C(C(=O)O)N2C(=O)C(NC(=O)C(NC(=O)c3cccnc3)c3ccccc3)C2SC1 (stereo not drawn) [Example C-1, 7-(α-nicotinoylamido-α-phenylacetamido)-3-(1-methyl-1H-tetrazle-5-ylthiomethyl)-Δ^3-cephem-4-carboxylic acid, reference compound] |  |  | 12.5 (≈ 22.1 µM) | > 100 | > 100 | > 100 |  |  | > 100 | 50 (≈ 88.2 µM) | 100 (≈ 176 µM) | 3.13 (≈ 5.52 µM) | 3.13 (≈ 5.52 µM) | 1.56 (≈ 2.75 µM) |  |  |  | 3.13 (≈ 5.52 µM) | 50 (≈ 88.2 µM) | 12.5 (≈ 22.1 µM) | 
4 | CC1=C(C(=O)O)N2C(=O)[C@@H](NC(=O)[C@H](N)c3ccccc3)[C@H]2SC1 [Cephalexin, reference compound] | 30 (≈ 86.4 µM) |  |  |  |  |  | 10 (≈ 28.8 µM) | 3 (≈ 8.64 µM) | 6.25 (≈ 18 µM) | 6.25 (≈ 18 µM) | 6.25 (≈ 18 µM) |  |  |  |  |  | 12.5 (≈ 36 µM) |  |  |  | MIC (proteus vulgaris OX 19US; Proteus vulgaris): 30 µg/mL (≈ 86.4 µM); MIC ([2]; Pseudomonas aeruginosa): > 100 µg/mL; MIC (salmonella enteritidis; ENTERITIDIS): 6.25 µg/mL (≈ 18 µM); MIC ([8]; Bacillus, 10778): 0.78 µg/mL (≈ 2.25 µM); MIC ([9]; Bacillus subtilis): 0.78 µg/mL (≈ 2.25 µM); MIC ([10]; Micrococcus flavus): 1.56 µg/mL (≈ 4.49 µM); MIC [11]: 1.56 µg/mL (≈ 4.49 µM); MIC ([12]; Staphylococcus): 6.25 µg/mL (≈ 18 µM)
5 | O=C(O)C1=C(CSc2cc(S)ncn2)CS[C@@H]2[C@H](NC(=O)[C@H](NC(=O)c3cnccc3O)c3ccccc3)C(=O)N12 [Example 5, 7-[D-α-(4-hydroxynicotinoylamido)-α-phenylacetamido]-3-(4-mercaptopyrimidin-6-yl)thiomethyl-Δ^3-cephem-4-carboxylic acid] |  | 0.78 (≈ 1.28 µM) | 0.19 (≈ 0.311 µM) | 25 (≈ 40.9 µM) | 25 (≈ 40.9 µM) |  |  |  | < 0.09 | 6.25 (≈ 10.2 µM) | 6.25 (≈ 10.2 µM) | 0.19 (≈ 0.311 µM) | 0.39 (≈ 0.639 µM) | 3.13 (≈ 5.13 µM) | 0.78 (≈ 1.28 µM) | 3.13 (≈ 5.13 µM) | 6.25 (≈ 10.2 µM) | < 0.09 | 3.13 (≈ 5.13 µM) | 3.13 (≈ 5.13 µM) | MIC [4]: 6.25 µg/mL (≈ 10.2 µM); MIC (salmonella enteritidis; [24]): 0.39 µg/mL (≈ 0.639 µM)
6 | Nc1nc(S)cc(SCC2=C(C(=O)O)N3C(=O)[C@@H](NC(=O)[C@H](NC(=O)c4cnccc4O)c4ccccc4)[C@H]3SC2)n1 [Example 6] |  |  | 1.56 (≈ 2.49 µM) | 100 (≈ 160 µM) | 50 (≈ 79.9 µM) |  |  |  | 0.19 (≈ 0.304 µM) | 12.5 (≈ 20 µM) | 12.5 (≈ 20 µM) | 0.78 (≈ 1.25 µM) | 0.78 (≈ 1.25 µM) | 3.13 (≈ 5 µM) | 0.78 (≈ 1.25 µM) | 3.13 (≈ 5 µM) |  | 0.19 (≈ 0.304 µM) | 6.25 (≈ 9.99 µM) | 6.25 (≈ 9.99 µM) | MIC (proteus vulgaris OX 19US; Proteus vulgaris): 12.5 µg/mL (≈ 20 µM); MIC [4]: 12.5 µg/mL (≈ 20 µM); MIC (salmonella enteritidis; [24]): 0.39 µg/mL (≈ 0.623 µM); MIC (Staphylococcus Onuma; Staphylococcus Onuma, read-out: MIC): 6.25 µg/mL (≈ 9.99 µM)
